Test results as given in PMC7842274 (ACS catalysis, 2020).

Assays:
PmHS2 = PmHS2 (Pasteurella multocida, UniProt Q5SGE1); experiment: apparent kinetics; assay type: biochemical; details: alpha1-4-GlcNAcT activity (acceptor; donor not stated in main text)
Δ80PmHS2 = Δ80PmHS2 (Pasteurella multocida, UniProt Q5SGE1); experiment: apparent kinetics; assay type: biochemical; details: alpha1-4-GlcNAcT activity (acceptor; donor not stated in main text)

Which results are given for GlcAβ2AA?
Km (PmHS2): 4 ± 0.6 mM; Km (Δ80PmHS2): 5.3 ± 0.7 mM
